Converted amounts (≈) assume the structure as drawn.
Experiments:
human MIF [1] = biological target: T1, human MIF (Homo sapiens (Human), UniProt P14174); assay: X-ray crystallography of complexes with human MIF; format: binding
Description: The solution was centrifuged at 13,000×g to remove precipitated compound and used to set up hanging-drop crystallization experiments. A reservoir of 2.0 M ammonium sulfate, 0.1 M Tris pH 7, and 3% isopropanol was added to the protein solution in a 1:1 ratio and stored at 20° C. Diffraction-quality crystals with a rod morphology grew within two weeks. The crystals were cryo-protected in 25% glycerol, 2.0M ammonium sulfate, 0.1 M Tris pH 7, and 3% isopropanol. Data was collected at the Advanced Photon Source remotely on the NE-CAT 24-ID-E beam line. […] Crystals were obtained by the hanging-drop method at 20° C. A reservoir of 2.2 M ammonium sulfate, 0.1 M Tris pH 7, and 3% isopropanol mixed in a 1:1 ratio with rhMIF (16 mg/mL) was used to produce 2 μL drops. […] Crystals were cryo-protected with 25% glycerol, 2.2 M ammonium sulfate, 0.1 M Tris pH 7, and 3% isopropanol. […] HKL2000 was used to index, integrate, and scale the MIF-3a data set in the […] space group and the MIF-3b in the P212121 space group. Phases were obtained by molecular replacement with PDB file 3U18 using the CCP4 and PHASER programs. Model building was performed in COOT with iterative restrained refinement with REFMAC.

human MIF [2] = biological target: T1, human MIF; assay: Inhibition of tautomerase activity of human MIF (HPP substrate); format: biochemical; details: MIF tautomerase, HPP substrate, 50 nM MIF
Aqueous solubility = format: physicochemical; details: aqueous solvent (not further specified), μg compound/mL solvent

Row | Ki (human MIF [2]) [nM] | solubility (Aqueous solubility) [µg/mL] | Structure (SMILES) | binding site from X-ray crystal structure of complex (human MIF [1])
1 |  |  | Oc1ccc(-n2cc(-c3ccc4ccccc4n3)nn2)cc1 [Example 3a, 4-(4-(quinolin-2-yl)-1H-1,2,3-triazol-1-yl)phenol] | confirm the binding of these inhibitors in the tautomerase active site
2 |  |  | COCCOc1ccc2nc(-c3cn(-c4ccc(O)cc4)nn3)ccc2c1 [Example 3b, 4-(4-(6-(2-methoxyethoxy)quinolin-2-yl)-1H-1,2,3-triazol-1-yl)phenol] | confirm the binding of these inhibitors in the tautomerase active site
3 |  |  | Oc1ccc(-n2cc(-c3ccc4cc(OCCOCCN5CCOCC5)ccc4n3)nn2)cc1 [Example 3v, 4-(4-(6-(2-(2-morpholinoethoxy)ethoxy)quinolin-2-yl)-1H-1,2,3-triazol-1-yl)phenol] | confirm the binding of these inhibitors in the tautomerase active site
4 | 45 | 867 (≈ 2040 µM) | O=C(O)COCCOc1ccc2nc(-c3cn(-c4ccc(O)c(F)c4)nn3)ccc2c1 [Example 44, 2-(2-((2-(1-(3-Fluoro-4-hydroxyphenyl)-1H-1,2,3-triazol-4-yl)quinolin-6-yl)oxy)ethoxy)acetic acid] | 
5 |  | 364 (≈ 1010 µM) | O=C(O)COc1ccc2nc(-c3cn(-c4ccc(O)cc4)nn3)ccc2c1 [Example 45] | 

From patent publication US10336721B2, “Biaryltriazole inhibitors of macrophage migration inhibitory factor” (YALE UNIVERSITY, priority 2015, dated 2019)
